Literature values in patent US9616098B2, “Formulations of vancomycin” (SCIDOSE, LLC, priority 2013, dated 2017).

In the case of `CN[C@H](CC(C)C)C(=O)N[C@H]1C(=O)N[C@@H](CC(N)=O)C(=O)N[C@H]2C(=O)N[C@H]3C(=O)N[C@H](C(=O)N[C@H](C(=O)O)c4cc(O)cc(O)c4-c4cc3ccc4O)[C@H](O)c3ccc(c(Cl)c3)Oc3cc2cc(c3O[C@@H]2O[C@H](CO)[C@@H](O)[C@H](O)[C@H]2O[C@H]2C[C@](C)(N)[C@H](O)[C@H](C)O2)Oc2ccc(cc2Cl)[C@H]1O` [Vancomycin], the “stable in water after reconstitution” value is listed as “approximately 24 hours”.
